Where two headings read alike, the source gives them in different places.
Columns and labels:
[1] = In Vitro Liver Microsomes Metabolic Stability Assay, mouse; assay type: in vitro ADME; conditions: mouse liver microsomes 0.5 mg/mL, 1 μM compound, NADPH, 0 and 30 min; scale-up CLint; read-out: CLint, Mouse LM
Experimental: (§1) In Vitro Liver Microsomes Metabolic Stability Assay of Different Species
(§2) 1. The liver microsomes were stored at −80° C. prior to use.
(§3) 2. The master solution was prepared according to Table 3.
(§4) 3. 40 μL of 10 mM NADPH solution was added to each well. The final concentrations of NADPH was 1 mM. The mixture was pre-warmed at 37° C. for 5 minutes. The negative control samples were prepared by replacing NADPH solutions with 40 μL of ultra-pure H2O. The negative control was used to exclude the misleading factor that resulted from instability of chemical itself. Samples with NADPH were prepared in duplicate. Negative controls were prepared in singlet.
(§5) 4. The reaction was started with the addition of 2 μL of 200 μM control compound or test compound solutions. Verapamil was used as positive control in this study. The final concentration of test compound or control compound was 1 μM.
(§6) 5. Aliquots of 50 μL were taken from the reaction solution at 0 and 30 minutes. The reaction was stopped by the addition of 4 volumes of cold acetonitrile with Internal Standard (100 nM alprazolam, 200 nM imipramine, 200 nM labetalol and 2 μM ketoprofen). Samples were centrifuged at 3, 220 g for 40 minutes. Aliquot of 90 μL of the supernatant was mixed with 90 μL of ultra-pure H2O and then used for LC-MS/MS analysis.
(§7) Peak areas were determined from extracted ion chromatograms. The slope value, k, was determined by linear regression of the natural logarithm of the remaining percentage of the parent drug vs. incubation time curve.
(§8) The in vitro half-life (in vitro t1/2) was determined from the slope value:
(§9) Conversion of the in vitro t1/2 (min) into the in vitro intrinsic clearance (in vitro CLint, in μL/min/mg protein) was done using the following equation (mean of duplicate determinations): […]
(§10) Conversion of the in vitro t1/2 (min) into the scale-up unbound intrinsic clearance (Scale-up CLint, in mL/min/kg) was done using the following equation (mean of duplicate determinations): […]

[2] = In Vitro Liver Microsomes Metabolic Stability Assay, human; assay type: in vitro ADME; conditions: human liver microsomes 0.5 mg/mL, 1 μM compound, NADPH, 0 and 30 min; scale-up CLint; read-out: CLint, Human LM
Experimental: as §1, §2, §3, §4, §5, §6, §7, §8, §9, §10

[3] = In Vitro Liver Microsomes Metabolic Stability Assay, rat; assay type: in vitro ADME; conditions: rat liver microsomes 0.5 mg/mL, 1 μM compound, NADPH, 0 and 30 min; scale-up CLint; read-out: CLint, Rat LM
Experimental: as §1, §2, §3, §4, §5, §6, §7, §8, §9, §10

[4] = molecular target: T1, TFEB (Homo sapiens, UniProt P19484); assay: Tfeb-Translocation Assay HEK-293T-oEX-Tfeb-GFP Cell Line; assay type: cell-based; conditions: HEK-293T-oEX-TFEB-GFP cells
T1 sequence (P19484 1-476): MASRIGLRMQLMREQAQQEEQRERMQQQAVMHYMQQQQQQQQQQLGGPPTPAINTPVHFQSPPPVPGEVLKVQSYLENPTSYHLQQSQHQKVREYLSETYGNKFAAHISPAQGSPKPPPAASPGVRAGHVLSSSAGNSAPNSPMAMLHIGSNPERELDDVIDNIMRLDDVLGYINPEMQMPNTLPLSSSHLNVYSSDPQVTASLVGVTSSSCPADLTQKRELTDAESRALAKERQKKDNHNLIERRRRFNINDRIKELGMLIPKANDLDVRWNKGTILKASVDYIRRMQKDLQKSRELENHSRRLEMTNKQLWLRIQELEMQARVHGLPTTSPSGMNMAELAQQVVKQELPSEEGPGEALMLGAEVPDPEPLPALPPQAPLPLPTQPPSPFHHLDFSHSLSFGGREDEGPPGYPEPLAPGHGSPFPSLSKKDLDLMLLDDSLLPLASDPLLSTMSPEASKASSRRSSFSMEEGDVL
Experimental: Tfeb-Translocation Assay HEK-293T-oEX-Tfeb-GFP Cell Line
• 1). Added 2×10^6 cell into a T75 flask with 15 mL DiVEM medium (with 10% FBS, 1% PS, 1×GLUTAMAX, 1×MEM NEAA, 1×HEPES Buffer Solution and 5 ug/mL blasticidin). • 2). Culturing for 48-72 hours. Cells in logarithmic growth phase were taken for experiment. The other cells were passaged as described in step 1. • 3). Seeded 1×10^4 cells/30 μL/well into 384-well plate (BD 356663). Cultured overnight at 37° C. & 5% CO2 incubator. • 4). Note: Used cells <10 passage
• 1). Compounds were firstly diluted by DMSO to the stock needed (10 mM), and aliquoted and stored at −20° C. • 2). Took one aliquot each time and made 3-fold or 2-fold dilutions as indicated, total 10 doses plus one DMSO control well in the source plate. • 3). Added 150 or 90 nL/well compounds solution to the assay plate by ECHO and incubated for 6 or 18 hours respectively at 37° C. & 5% CO2 incubator.
• 1). Added 30 uL 8% PFA into the wells and incubated 20 min at room temperature. • 2). Discarded the medium, washed the wells twice with DPBS to eliminate foam and bubbles in the well.
• 1). Diluted Hoechest-333824 in DPBS to get 2 μg/mL solution and added 30 uL/well into assay plate, incubated at room temperature for 20 mins. • 2). Discarded the supernatant, washed the wells twice with DPBS to eliminate foam and bubbles in the well. Then added DPBS 20 uL/well.
3). Scanned Plate by Operetta.
• 1). Reference compound: Torin 1 • 2). Test compounds: C1, C2, C3, C4, C5, C6. • 3). Diluted compounds in 384 LDV-dilution plate according to the dilution plate map • 4). Compounds starting concentration: Torin 1: 300 nM and Test compounds: 50 uM.
• 1). Selected all nucleus by Operetta as ‘All Cells’ • 2). Calculated the EGFP average intensity inside the Nucleus region. • 3). Selected population that the EGFP mean intensity inside the Nucleus region>background as the EGFP-positive cells • 4). Selected the Surrounding region of the nucleus and calculated the EGFP mean intensity of the region • 5). Inside the EGFP-positive cell population, selected the cells with EGFP mean intensity inside the Nucleus region/the EGFP mean intensity inside the surrounding region=1.2 (This ratio could be slightly adjusted from time to time) as the Translocation positive cell. • 6). Outputted the ratio of Translocation positive cell/EGFP-positive cells as the Translocation Positive Ratio. • 7). Each time set the ratio of DMSO group (Control Group) as ˜15% and then normalized the compound group to the DMSO group.

[5] = translocation positive cells ratio, read-out: TFEB Translocation EC50

Row | EC50 [4, 5] | SMILES | also measured
1 |  | Cc1nc2ccn(Cc3ccco3)c(=O)c2cc1C(=O)NCC1CCC(Cl)CC1 (stereo not drawn) [Comparator 2, reference compound] | CLint scaled at 1 μM [1]: 939 mL/min/kg; CLint scaled at 1 μM [2]: 77 mL/min/kg; CLint scaled at 1 μM [3]: 318 mL/min/kg
2 | < 100 nM | Cc1ccc(CNC(=O)c2cc3c(=O)n(Cc4ccccc4)ccc3nc2C)o1 [Example 1, 6-benzyl-2-methyl-N-((5-methylfuran-2-yl)methyl)-5-oxo-5,6-dihydro-1,6-naphthyridine-3-carboxamide] | CLint scaled at 1 μM [1]: 760 mL/min/kg; CLint scaled at 1 μM [2]: 57 mL/min/kg; CLint scaled at 1 μM [3]: 319 mL/min/kg
3 | < 100 nM | Cc1nc2ccn(Cc3ccc(Cl)cc3)c(=O)c2cc1C(=O)NCc1ccc(F)cn1 [Example 51, 6-(4-chlorobenzyl)-N-((5-fluoropyridin-2-yl)methyl)-2-methyl-5-oxo-5,6-dihydro-1,6-naphthyridine-3-carboxamide] | CLint scaled at 1 μM [1]: 140 mL/min/kg; CLint scaled at 1 μM [3]: 42 mL/min/kg
4 | 1000 to 10000 nM | COCCOCCOc1ccc(Cn2ccc3nc(C)c(C(=O)NCc4ccc(Cl)cn4)cc3c2=O)cc1 [Example 64, N-((5-chloropyridin-2-yl)methyl)-6-(4-(2-(2-methoxyethoxy)ethoxy)benzyl)-2-methyl-5-oxo-5,6-dihydro-1,6-naphthyridine-3-carboxamide] | 
5 | ≥ 10000 nM | Cc1nc2ccn(Cc3ccccc3)c(=O)c2cc1C(=O)NCc1ccc(OC(C)C)cc1 [Example 67, 6-benzyl-N-(4-isopropoxybenzyl)-2-methyl-5-oxo-5,6-dihydro-1,6-naphthyridine-3-carboxamide] | 
6 | 100 to 1000 nM | Cc1ccc(CNC(=O)c2cc3c(=O)n(Cc4ccccc4)ccc3nc2C)cc1 [Example 68, 6-benzyl-2-methyl-N-(4-methylbenzyl)-5-oxo-5,6-dihydro-1,6-naphthyridine-3-carboxamide] | 
7 | < 100 nM | Cc1nc2ccn(Cc3ccccc3)c(=O)c2cc1C(=O)NCc1ccc2c(c1)OCO2 [Example 69, N-(benzo[d][1,3]dioxol-5-ylmethyl)-6-benzyl-2-methyl-5-oxo-5,6-dihydro-1,6-naphthyridine-3-carboxamide] | 
8 | < 100 nM | Cc1ccc(CNC(=O)c2cc3c(=O)n(Cc4cccs4)ccc3nc2C)o1 [Example 70, 2-methyl-N-((5-methylfuran-2-yl)methyl)-5-oxo-6-(thiophen-2-ylmethyl)-5,6-dihydro-1,6-naphthyridine-3-carboxamide] | 
9 | 100 to 1000 nM | Cc1nc2ccn(Cc3ccccc3)c(=O)c2cc1C(=O)NCc1cccs1 [Example 71, 6-benzyl-2-methyl-5-oxo-N-(thiophen-2-ylmethyl)-5,6-dihydro-1,6-naphthyridine-3-carboxamide] | 
10 | 100 to 1000 nM | COCCn1ccc2nc(C)c(C(=O)NCc3ccc(C)o3)cc2c1=O [Example 72, 6-(2-methoxyethyl)-2-methyl-N-((5-methylfuran-2-yl)methyl)-5-oxo-5,6-dihydro-1,6-naphthyridine-3-carboxamide] | 
11 | 1000 to 10000 nM | Cc1nc2ccn(Cc3ccccc3)c(=O)c2cc1C(=O)NCCc1ccco1 [Example 73, 6-benzyl-N-(2-(furan-2-yl)ethyl)-2-methyl-5-oxo-5,6-dihydro-1,6-naphthyridine-3-carboxamide] | 
12 | 1000 to 10000 nM | Nc1nc2ccn(Cc3ccccc3)c(=O)c2cc1C(=O)NCc1ccccn1 [Example 74, 2-amino-6-benzyl-5-oxo-N-(pyridin-2-ylmethyl)-5,6-dihydro-1,6-naphthyridine-3-carboxamide] | 
13 | < 100 nM | Cc1nc2ccn(Cc3ccc(Cl)c(F)c3)c(=O)c2cc1C(=O)NCc1ccccn1 [Example 75, 6-(4-chloro-3-fluorobenzyl)-2-methyl-5-oxo-N-(pyridin-2-ylmethyl)-5,6-dihydro-1,6-naphthyridine-3-carboxamide] | 
14 | < 100 nM | Cc1nc(CNC(=O)c2cc3c(=O)n(Cc4ccc(F)c(F)c4)ccc3nc2C)co1 [Example 76, 6-(3,4-difluorobenzyl)-2-methyl-N-((2-methyloxazol-4-yl)methyl)-5-oxo-5,6-dihydro-1,6-naphthyridine-3-carboxamide] | 
15 | ≥ 10000 nM | COCCOCCOc1ccc(CNC(=O)c2cc3c(=O)n(Cc4ccc(Cl)cc4)ccc3nc2C)nc1 [Example 77, 6-(4-chlorobenzyl)-N-((5-(2-(2-methoxyethoxy)ethoxy)pyridin-2-yl)methyl)-2-methyl-5-oxo-5,6-dihydro-1,6-naphthyridine-3-carboxamide] | 
16 | < 100 nM | Cc1nc(CNC(=O)c2cc3c(=O)n(Cc4ccc(F)cc4)ccc3nc2C)co1 [Example 78, 6-(4-fluorobenzyl)-2-methyl-N-((2-methyloxazol-4-yl)methyl)-5-oxo-5,6-dihydro-1,6-naphthyridine-3-carboxamide] | 
17 | < 100 nM | Cc1nc(CNC(=O)c2cc3c(=O)n(Cc4cccc(F)c4)ccc3nc2C)co1 [Example 79, 6-(3-fluorobenzyl)-2-methyl-N-((2-methyloxazol-4-yl)methyl)-5-oxo-5,6-dihydro-1,6-naphthyridine-3-carboxamide] | 
18 | < 100 nM | Cc1nc(CNC(=O)c2cc3c(=O)n(Cc4ccc(Cl)cc4)ccc3nc2C)co1 [Example 80, 6-(4-chlorobenzyl)-2-methyl-N-((2-methyloxazol-4-yl)methyl)-5-oxo-5,6-dihydro-1,6-naphthyridine-3-carboxamide] | 
19 | < 100 nM | Cc1nc(CNC(=O)c2cc3c(=O)n(Cc4cc(F)cc(F)c4)ccc3nc2C)co1 [Example 81, 6-(3,5-difluorobenzyl)-2-methyl-N-((2-methyloxazol-4-yl)methyl)-5-oxo-5,6-dihydro-1,6-naphthyridine-3-carboxamide] | 
20 |  | CCC(=O)N1CCN(c2ccc(-n3c(=O)ccc4cnc5ccc(-c6cnc7ccccc7c6)cc5c43)cc2C(F)(F)F)CC1 [Torin 1, reference compound] | EC50 ([4]; reference compound, read-out: EC50 of reference compound (TFEB translocation)): 28.3 nM
